Measurements reported in patent US20260347338A1, “PYRIMIDINE/PYRIDINE DERIVATIVES OR SALTS THEREOF AND PHARMACEUTICAL COMPOSITIONS COMPRISING THE SAME” (YUHAN CORPORATION, priority 2023, published 2026).
Structures can show the parent of a compound that is named as a salt.

The molecules below were run against T1, human recombinant HPK1 (Homo sapiens, UniProt Q92918) (assay: Inhibitory activity against human recombinant HPK1 (TR-FRET)). Conditions: ULight-p70S6K peptide, ATP at Km, room temperature, 1 hour, 0.32 to 1000 nM compound.
T1 construct: purchased BPS Bioscience
Type: biochemical
Summary of the method: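 Recombinant human HPK1 with ULight-p70S6K peptide and ATP at Km, 1 h at room temperature in HEPES pH 7.4 buffer with Mg2+, Mn2+, EGTA, DTT; compounds 0.32–1000 nM final. EDTA stop, Eu-anti-phosphopeptide TR-FRET read (665 nm); IC50 from % inhibition versus DMSO, binned A–D at 10, 50, 100 nM.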

T1 sequence (Q92918 whole entry): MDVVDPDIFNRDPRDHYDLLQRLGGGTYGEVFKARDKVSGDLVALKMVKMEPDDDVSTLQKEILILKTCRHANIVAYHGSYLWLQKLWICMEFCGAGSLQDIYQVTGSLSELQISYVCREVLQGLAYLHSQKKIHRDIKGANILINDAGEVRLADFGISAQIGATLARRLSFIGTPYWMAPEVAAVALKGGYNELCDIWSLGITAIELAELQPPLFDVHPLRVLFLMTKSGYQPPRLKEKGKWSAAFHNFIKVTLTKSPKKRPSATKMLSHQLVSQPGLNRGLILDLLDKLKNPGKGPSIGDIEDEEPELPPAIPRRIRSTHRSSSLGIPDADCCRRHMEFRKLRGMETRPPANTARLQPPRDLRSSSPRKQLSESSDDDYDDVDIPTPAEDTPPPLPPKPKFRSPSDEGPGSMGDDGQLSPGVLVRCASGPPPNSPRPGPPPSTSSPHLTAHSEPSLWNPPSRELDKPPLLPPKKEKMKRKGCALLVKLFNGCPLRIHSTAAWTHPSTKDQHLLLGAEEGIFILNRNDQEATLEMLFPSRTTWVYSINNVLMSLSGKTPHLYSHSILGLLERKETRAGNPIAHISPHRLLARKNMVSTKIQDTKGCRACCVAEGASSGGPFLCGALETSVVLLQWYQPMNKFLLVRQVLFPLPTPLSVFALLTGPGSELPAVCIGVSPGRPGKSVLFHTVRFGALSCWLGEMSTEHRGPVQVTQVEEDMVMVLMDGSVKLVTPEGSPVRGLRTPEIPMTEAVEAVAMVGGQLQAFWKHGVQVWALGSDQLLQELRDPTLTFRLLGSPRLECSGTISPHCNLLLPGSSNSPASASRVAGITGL

Structure (SMILES) | IC50 [nM]
CNCc1cc(F)c(-c2nccc(Nc3cc(N4CCC[C@H](O)C4)c(-c4cnn(C5CCOCC5)c4)cn3)n2)c(OC)c1 [Example 190, (S)-1-(2-((2-(2-fluoro-6-methoxy-4-((methylamino)methyl)phenyl)pyrimidin-4-yl)amino)-5-(1-(tetrahydro-2H-pyran-4-yl)-1H-pyrazol-4-yl)pyridin-4-yl)piperidin-3-ol] | ≤ 10
CCOc1cccc(F)c1-c1nccc(Nc2cc(N3CCC[C@H](O)C3)c(-c3cnn(C4CCOCC4)c3)cn2)n1 [Example 25, (S)-1-(2-((2-(2-ethoxy-6-fluorophenyl)pyrimidin-4-yl)amino)-5-(1-(tetrahydro-2H-pyran-4-yl)-1H-pyrazol-4-yl)pyridin-4-yl)piperidin-3-ol] | 10 to 50
COc1cccc(F)c1-c1nc(Nc2cc(N3CCC[C@H](O)C3)c(C(N)=O)cn2)ccc1[N+](=O)[O-] [Example 191, 6-((6-(2-fluoro-6-methoxyphenyl)-5-nitropyridin-2-yl)amino)-4-((S)-3-hydroxypiperidin-1-yl)nicotinamide] | ≤ 10
O[C@H]1CCCN(c2cc(Nc3ccnc(-c4ccc5nccnc5c4)n3)ncc2-c2cnn(C3CCOCC3)c2)C1 [Example 28, (S)-1-(2-((2-(quinoxalin-6-yl)pyrimidin-4-yl)amino)-5-(1-(tetrahydro-2H-pyran-4-yl)-1H-pyrazol-4-yl)pyridin-4-yl)piperidin-3-ol] | 10 to 50
COc1cc(F)cc(F)c1-c1nc(Nc2cc(N3CCC[C@H](N)C3)c(-c3cnn(C(F)F)c3)cn2)ccc1C#N [Example 310, 6-((4-((S)-3-aminopiperidin-1-yl)-5-(1-(difluoromethyl)-1H-pyrazol-4-yl)pyridin-2-yl)amino)-2-(2,4-difluoro-6-methoxyphenyl)nicotinonitrile hydrochloride] | ≤ 10
COc1cccc(F)c1-c1cccc(Nc2cc(N3CCC[C@H](O)C3)c(-c3cnn(C4CCOCC4)c3)cn2)n1 [Example 35, (S)-1-(2-((6-(2-fluoro-6-methoxyphenyl)pyridin-2-yl)amino)-5-(1-(tetrahydro-2H-pyran-4-yl)-1H-pyrazol-4-yl)pyridin-4-yl)piperidin-3-ol] | ≤ 10
COc1cccc(F)c1-c1nccc(Nc2cc(N3CCC[C@H](N)C3)c(-c3ccc(F)c(C(F)(F)F)c3)cn2)n1 [Example 293, (S)-N-(4-(3-aminopiperidin-1-yl)-5-(4-fluoro-3-(trifluoromethyl)phenyl)pyridin-2-yl)-2-(2-fluoro-6-methoxyphenyl)pyrimidin-4-amine hydrochloride] | ≤ 10
COc1cccc(F)c1-c1nccc(Nc2cc(N3CCC[C@H](N)C3)c(-c3cnn([C@H]4CCNC4)c3)cn2)n1 [Example 239, N-(4-((S)-3-aminopiperidin-1-yl)-5-(1-((S)-pyrrolidin-3-yl)-1H-pyrazol-4-yl)pyridin-2-yl)-2-(2-fluoro-6-methoxyphenyl)pyrimidin-4-amine hydrochloride] | ≤ 10
COc1cccc(F)c1-c1nc(Nc2cc(N3CCC[C@H](N)C3)c(-c3cnn(C(F)F)c3)cn2)ccc1C#N [Example 301, 6-((4-((S)-3-aminopiperidin-1-yl)-5-(1-(difluoromethyl)-1H-pyrazol-4-yl)pyridin-2-yl)amino)-2-(2-fluoro-6-methoxyphenyl)nicotinonitrile hydrochloride] | ≤ 10
COc1cccc(F)c1-c1nccc(Nc2cc(N3CCC(C(C)O)CC3)c(-c3cnn(C4CCOCC4)c3)cn2)n1 (centres unmarked) [Example 66, 1-(1-(2-((2-(2-fluoro-6-methoxyphenyl)pyrimidin-4-yl)amino)-5-(1-(tetrahydro-2H-pyran-4-yl)-1H-pyrazol-4-yl)pyridin-4-yl)piperidin-4-yl)ethan-1-ol] | ≤ 10
COc1cccc(F)c1-c1nc(Nc2cc(N3CCC[C@H](N)C3)c(-c3cnn(C(C)C)c3)cn2)ccc1C#N [Example 328, 6-((4-((S)-3-aminopiperidin-1-yl)-5-(1-isopropyl-1H-pyrazol-4-yl)pyridin-2-yl)amino)-2-(2-fluoro-6-methoxyphenyl)nicotinonitrile hydrochloride] | ≤ 10
COc1cccc(F)c1-c1nccc(Nc2cc(N3CCC[C@H](N)C3)c(-c3cnn(CC(F)(F)F)c3)cn2)n1 [Example 78, (S)-N-(4-(3-aminopiperidin-1-yl)-5-(1-(2,2,2-trifluoroethyl)-1H-pyrazol-4-yl)pyridin-2-yl)-2-(2-fluoro-6-methoxyphenyl)pyrimidin-4-amine hydrochloride] | ≤ 10
CCN[C@H]1CCN(c2cc(Nc3ccnc(-c4c(F)cccc4OC)n3)ncc2-c2cnn(C3CCOCC3)c2)C1 [Example 125, (S)-N-(4-(3-(ethylamino)pyrrolidin-1-yl)-5-(1-(tetrahydro-2H-pyran-4-yl)-1H-pyrazol-4-yl)pyridin-2-yl)-2-(2-fluoro-6-methoxyphenyl)pyrimidin-4-amine] | ≤ 10
COc1cccc(F)c1-c1nccc(Nc2cc(N3CCCC(C(N)=O)C3)c(-c3cnn(C4CCOCC4)c3)cn2)n1 (centres unmarked) [Example 34, 1-(2-((2-(2-fluoro-6-methoxyphenyl)pyrimidin-4-yl)amino)-5-(1-(tetrahydro-2H-pyran-4-yl)-1H-pyrazol-4-yl)pyridin-4-yl)piperidin-3-carboxamide] | 10 to 50
COCCOc1ccc(-c2cnc(Nc3ccnc(-c4c(F)cccc4OC)n3)cc2N2CCC[C@H](N)C2)cn1 [Example 230, (S)-4-(3-aminopiperidin-1-yl)-N-(2-(2-fluoro-6-methoxyphenyl)pyrimidin-4-yl)-6′-(2-methoxyethoxy)-[3,3′-bipyridin]-6-amine] | ≤ 10
COc1cccc(F)c1-c1nccc(Nc2cc(N3CCC[C@H](N)C3)c(-c3cnn(CCO)c3)cn2)n1 [Example 133, (S)-2-(4-(4-(3-aminopiperidin-1-yl)-6-((2-(2-fluoro-6-methoxyphenyl)pyrimidin-4-yl)amino)pyridin-3-yl)-1H-pyrazol-1-yl)ethan-1-ol hydrochloride] | ≤ 10
COc1cccc(F)c1-c1nc(Nc2cc(N3CCC[C@H](N)C3)c(C#Cc3cnn(C(F)(F)F)c3)cn2)ccc1F [Example 114, 4-((S)-3-aminopiperidin-1-yl)-N-(5-fluoro-6-(2-fluoro-6-methoxyphenyl)pyridin-2-yl)-5-((1-(trifluoromethyl)-1H-pyrazol-4-yl)ethynyl)pyridin-2-amine hydrochloride] | ≤ 10

Results, then the molecule that gave them:

IC50 [nM] | Structure (SMILES)
≤ 10 | N[C@H]1CCCN(c2cc(Nc3ccnc(-c4cc5nccnc5cc4F)n3)ncc2-c2cnn(CC(F)(F)F)c2)C1 [Example 89, (S)-N-(4-(3-aminopiperidin-1-yl)-5-(1-(2,2,2-trifluoroethyl)-1H-pyrazol-4-yl)pyridin-2-yl)-2-(7-fluoroquinoxalin-6-yl)pyrimidin-4-amine hydrochloride]
≤ 10 | COc1cccc(F)c1-c1nccc(Nc2cc(N3CCC[C@H](O)C3)c(-c3ccc(C(=O)N4CCN(C)CC4)nc3)cn2)n1 [Example 36, (S)-(6′-((2-(2-fluoro-6-methoxyphenyl)pyrimidin-4-yl)amino)-4′-(3-hydroxypiperidin-1-yl)-[3,3′-bipyridin]-6-yl)(4-methylpiperazin-1-yl)methanone]
≤ 10 | COc1cccc(F)c1-c1nc(Nc2cc(N3CCC[C@H](O)C3)c(C(=O)N[C@@H]3CC[C@@H](O)C3)cn2)ccc1N [Example 201, 6-((5-amino-6-(2-fluoro-6-methoxyphenyl)pyridin-2-yl)amino)-N-((1R,3R)-3-hydroxycyclopentyl)-4-((S)-3-hydroxypiperidin-1-yl)nicotinamide]
≤ 10 | COc1cccc(F)c1-c1nccc(Nc2cc(N3CCC4(CCN(C)C4)CC3)c(-c3cnn(C(F)F)c3)cn2)n1 [Example 135, N-(5-(1-(difluoromethyl)-1H-pyrazol-4-yl)-4-(2-methyl-2,8-diazaspiro[4.5]decan-8-yl)pyridin-2-yl)-2-(2-fluoro-6-methoxyphenyl)pyrimidin-4-amine]
≤ 10 | COc1cccc(F)c1-c1nccc(Nc2cc(N3CC[C@H](N)[C@H](C)C3)c(-c3cnn(C(F)F)c3)cn2)n1 [Example 297, N-(4-((3R,4S)-4-amino-3-methylpiperidin-1-yl)-5-(1-(difluoromethyl)-1H-pyrazol-4-yl)pyridin-2-yl)-2-(2-fluoro-6-methoxyphenyl)pyrimidin-4-amine hydrochloride]
≤ 10 | COc1cccc(F)c1-c1nccc(Nc2cc(N3C[C@@H](N)C[C@H](O)C3)c(-c3cnn(C(F)F)c3)cn2)n1 [Example 306, (3S,5S)-5-amino-1-(5-(1-(difluoromethyl)-1H-pyrazol-4-yl)-2-((2-(2-fluoro-6-methoxyphenyl)pyrimidin-4-yl)amino)pyridin-4-yl)piperidin-3-ol hydrochloride]
≤ 10 | COc1cccc(F)c1-c1nccc(Nc2cc(N3CCC[C@H](N)C3)c(-c3cnn(C4CC(C)(C)OC(C)(C)C4)c3)cn2)n1 [Example 269, (S)-N-(4-(3-aminopiperidin-1-yl)-5-(1-(2,2,6,6-tetramethyltetrahydro-2H-pyran-4-yl)-1H-pyrazol-4-yl)pyridin-2-yl)-2-(2-fluoro-6-methoxyphenyl)pyrimidin-4-amine hydrochloride]
≤ 10 | COc1cccc(F)c1-c1nccc(Nc2cc(N3CCC[C@H](N)C3)c(C#Cc3cnn(C(F)(F)F)c3)cn2)n1 [Example 111, (S)-N-(4-(3-aminopiperidin-1-yl)-5-((1-(trifluoromethyl)-1H-pyrazol-4-yl)ethynyl)pyridin-2-yl)-2-(2-fluoro-6-methoxyphenyl)pyrimidin-4-amine hydrochloride]
≤ 10 | COc1cccc(F)c1-c1nccc(Nc2cc(N3C[C@@H](N)C[C@H](F)C3)c(-c3cnn(C(F)F)c3)cn2)n1 [Example 304, N-(4-((3S,5S)-3-amino-5-fluoropiperidin-1-yl)-5-(1-(difluoromethyl)-1H-pyrazol-4-yl)pyridin-2-yl)-2-(2-fluoro-6-methoxyphenyl)pyrimidin-4-amine hydrochloride]
